From the NIST ThermoML archive (doi:10.1016/j.fluid.2016.02.009)

Conditions: Liquid, Vibrating tube method

CCCOCCC [dipropyl ether]
Conditions | mass density [kg/m3]
283.15 K, 100 kPa | 757.39
283.15 K, 5000 kPa | 762.38
283.15 K, 10000 kPa | 767.05
283.15 K, 15000 kPa | 771.45
283.15 K, 20000 kPa | 775.62
283.15 K, 25000 kPa | 779.52
283.15 K, 30000 kPa | 783.28
283.15 K, 35000 kPa | 786.9
283.15 K, 40000 kPa | 790.38
283.15 K, 45000 kPa | 793.67
283.15 K, 50000 kPa | 796.87
283.15 K, 55000 kPa | 800.02
283.15 K, 60000 kPa | 802.99
283.15 K, 65000 kPa | 805.87
288.15 K, 100 kPa | 752.52
288.15 K, 5000 kPa | 757.69
288.15 K, 10000 kPa | 762.5
288.15 K, 15000 kPa | 767.01
288.15 K, 20000 kPa | 771.21
288.15 K, 25000 kPa | 775.22
288.15 K, 30000 kPa | 779.05
288.15 K, 35000 kPa | 782.73
288.15 K, 40000 kPa | 786.26
288.15 K, 45000 kPa | 789.68
288.15 K, 50000 kPa | 792.99
288.15 K, 55000 kPa | 796.16
288.15 K, 60000 kPa | 799.26
288.15 K, 65000 kPa | 802.29
293.15 K, 100 kPa | 747.63
293.15 K, 5000 kPa | 752.98
293.15 K, 10000 kPa | 757.94
293.15 K, 15000 kPa | 762.58
293.15 K, 20000 kPa | 766.89
293.15 K, 25000 kPa | 771.01
293.15 K, 30000 kPa | 774.94
293.15 K, 35000 kPa | 778.69
293.15 K, 40000 kPa | 782.3
293.15 K, 45000 kPa | 785.81
293.15 K, 50000 kPa | 789.18
293.15 K, 55000 kPa | 792.44
293.15 K, 60000 kPa | 795.56
293.15 K, 65000 kPa | 798.64
298.15 K, 100 kPa | 742.71
298.15 K, 5000 kPa | 748.24
298.15 K, 10000 kPa | 753.37
298.15 K, 15000 kPa | 758.15
298.15 K, 20000 kPa | 762.57
298.15 K, 25000 kPa | 766.81
298.15 K, 30000 kPa | 770.85
298.15 K, 35000 kPa | 774.71
298.15 K, 40000 kPa | 778.42
298.15 K, 45000 kPa | 781.98
298.15 K, 50000 kPa | 785.42
298.15 K, 55000 kPa | 788.74
298.15 K, 60000 kPa | 791.97
298.15 K, 65000 kPa | 795.06
303.15 K, 100 kPa | 737.77
303.15 K, 5000 kPa | 743.49
303.15 K, 10000 kPa | 748.78
303.15 K, 15000 kPa | 753.68
303.15 K, 20000 kPa | 758.26
303.15 K, 25000 kPa | 762.61
303.15 K, 30000 kPa | 766.76
303.15 K, 35000 kPa | 770.7
303.15 K, 40000 kPa | 774.48
303.15 K, 45000 kPa | 778.13
303.15 K, 50000 kPa | 781.64
303.15 K, 55000 kPa | 785.01
303.15 K, 60000 kPa | 788.28
303.15 K, 65000 kPa | 791.45
308.15 K, 100 kPa | 732.8
308.15 K, 5000 kPa | 738.69
308.15 K, 10000 kPa | 744.18
308.15 K, 15000 kPa | 749.22
308.15 K, 20000 kPa | 753.95
308.15 K, 25000 kPa | 758.41
308.15 K, 30000 kPa | 762.65
308.15 K, 35000 kPa | 766.7
308.15 K, 40000 kPa | 770.6
308.15 K, 45000 kPa | 774.31
308.15 K, 50000 kPa | 777.92
308.15 K, 55000 kPa | 781.37
308.15 K, 60000 kPa | 784.7
308.15 K, 65000 kPa | 787.86
313.15 K, 100 kPa | 727.8
313.15 K, 5000 kPa | 733.9
313.15 K, 10000 kPa | 739.57
313.15 K, 15000 kPa | 744.77
313.15 K, 20000 kPa | 749.62
313.15 K, 25000 kPa | 754.2
313.15 K, 30000 kPa | 758.55
313.15 K, 35000 kPa | 762.71
313.15 K, 40000 kPa | 766.68
313.15 K, 45000 kPa | 770.47
313.15 K, 50000 kPa | 774.17
313.15 K, 55000 kPa | 777.67
313.15 K, 60000 kPa | 781.06
313.15 K, 65000 kPa | 784.29
318.15 K, 100 kPa | 722.77
318.15 K, 5000 kPa | 729.04
318.15 K, 10000 kPa | 735.01
318.15 K, 15000 kPa | 740.33
318.15 K, 20000 kPa | 745.32
318.15 K, 25000 kPa | 750.04
318.15 K, 30000 kPa | 754.51
318.15 K, 35000 kPa | 758.76
318.15 K, 40000 kPa | 762.84
318.15 K, 45000 kPa | 766.72
318.15 K, 50000 kPa | 770.47
318.15 K, 55000 kPa | 774.07
318.15 K, 60000 kPa | 777.53
318.15 K, 65000 kPa | 780.73
323.15 K, 100 kPa | 717.7
323.15 K, 5000 kPa | 724.25
323.15 K, 10000 kPa | 730.31
323.15 K, 15000 kPa | 735.84
323.15 K, 20000 kPa | 741
323.15 K, 25000 kPa | 745.84
323.15 K, 30000 kPa | 750.43
323.15 K, 35000 kPa | 754.79
323.15 K, 40000 kPa | 758.96
323.15 K, 45000 kPa | 762.93
323.15 K, 50000 kPa | 766.76
323.15 K, 55000 kPa | 770.41
323.15 K, 60000 kPa | 773.95
323.15 K, 65000 kPa | 777.21
328.15 K, 100 kPa | 712.59
328.15 K, 5000 kPa | 719.28
328.15 K, 10000 kPa | 725.68
328.15 K, 15000 kPa | 731.37
328.15 K, 20000 kPa | 736.67
328.15 K, 25000 kPa | 741.66
328.15 K, 30000 kPa | 746.37
328.15 K, 35000 kPa | 750.85
328.15 K, 40000 kPa | 755.1
328.15 K, 45000 kPa | 759.16
328.15 K, 50000 kPa | 763.06
328.15 K, 55000 kPa | 766.79
328.15 K, 60000 kPa | 770.38
328.15 K, 65000 kPa | 773.71
333.15 K, 100 kPa | 707.45
333.15 K, 5000 kPa | 714.57
333.15 K, 10000 kPa | 721.03
333.15 K, 15000 kPa | 726.88
333.15 K, 20000 kPa | 732.34
333.15 K, 25000 kPa | 737.47
333.15 K, 30000 kPa | 742.3
333.15 K, 35000 kPa | 746.89
333.15 K, 40000 kPa | 751.24
333.15 K, 45000 kPa | 755.35
333.15 K, 50000 kPa | 759.32
333.15 K, 55000 kPa | 763.16
333.15 K, 60000 kPa | 766.84
333.15 K, 65000 kPa | 770.23
